In patent US11912663B2, “Multi-targeted tyrosine kinase inhibitors and their pharmaceutical uses” (Shanghai AB PharmaTech Ltd., priority 2021, dated 2024):

Legend:
[1] = tested on: pancreatic cancer cell line (BXPC3); experiment: tumor cell proliferation inhibition (CTG), pancreatic cancer cell line; format: cell-based; details: Homo sapiens, BXPC-3, 72 hours
[2] = tested on: lung cancer cell line (A549); experiment: tumor cell proliferation inhibition (CTG), lung cancer cell line; format: cell-based; details: Homo sapiens, 72 hours
[3] = tested on: kidney cancer cell line (Caki-1); experiment: tumor cell proliferation inhibition (CTG), kidney cancer cell line; format: cell-based; details: Homo sapiens, 72 hours, read-out: Caki-1 (renal cancer) IC50
[4] = tested on: hepatocellular carcinoma cell line (Hep3B 2.1-7); experiment: tumor cell proliferation inhibition (CTG), hepatocellular carcinoma cell line; format: cell-based; details: Homo sapiens, 72 hours
[5] = tested on: gastric cancer cell line (SNU16); experiment: tumor cell proliferation inhibition (CTG), gastric cancer cell line; format: cell-based; details: Homo sapiens, SNU-16, 72 hours, read-out: SUN16 IC50
[6] = tested on: cervical cancer cell lines (Hela); experiment: tumor cell proliferation inhibition (CTG), cervical cancer cell line; format: cell-based; details: Homo sapiens, 72 hours
[7] = tested on: leukemia cell line (K562); experiment: tumor cell proliferation inhibition (CTG), leukemia cell line; format: cell-based; details: Homo sapiens, 72 hours
[8] = tested on: prostatic cancer (PC-3); experiment: tumor cell proliferation inhibition (CTG), PC-3; format: cell-based; details: 72 hours
[9] = molecular target: hERG potassium channels (Homo sapiens (Human), UniProt Q12809); experiment: in vitro inhibitory effect of hERG, whole-cell patch clamp; format: cell-based; details: whole-cell recording, room temperature
Sequence of hERG potassium channels (Q12809 whole entry): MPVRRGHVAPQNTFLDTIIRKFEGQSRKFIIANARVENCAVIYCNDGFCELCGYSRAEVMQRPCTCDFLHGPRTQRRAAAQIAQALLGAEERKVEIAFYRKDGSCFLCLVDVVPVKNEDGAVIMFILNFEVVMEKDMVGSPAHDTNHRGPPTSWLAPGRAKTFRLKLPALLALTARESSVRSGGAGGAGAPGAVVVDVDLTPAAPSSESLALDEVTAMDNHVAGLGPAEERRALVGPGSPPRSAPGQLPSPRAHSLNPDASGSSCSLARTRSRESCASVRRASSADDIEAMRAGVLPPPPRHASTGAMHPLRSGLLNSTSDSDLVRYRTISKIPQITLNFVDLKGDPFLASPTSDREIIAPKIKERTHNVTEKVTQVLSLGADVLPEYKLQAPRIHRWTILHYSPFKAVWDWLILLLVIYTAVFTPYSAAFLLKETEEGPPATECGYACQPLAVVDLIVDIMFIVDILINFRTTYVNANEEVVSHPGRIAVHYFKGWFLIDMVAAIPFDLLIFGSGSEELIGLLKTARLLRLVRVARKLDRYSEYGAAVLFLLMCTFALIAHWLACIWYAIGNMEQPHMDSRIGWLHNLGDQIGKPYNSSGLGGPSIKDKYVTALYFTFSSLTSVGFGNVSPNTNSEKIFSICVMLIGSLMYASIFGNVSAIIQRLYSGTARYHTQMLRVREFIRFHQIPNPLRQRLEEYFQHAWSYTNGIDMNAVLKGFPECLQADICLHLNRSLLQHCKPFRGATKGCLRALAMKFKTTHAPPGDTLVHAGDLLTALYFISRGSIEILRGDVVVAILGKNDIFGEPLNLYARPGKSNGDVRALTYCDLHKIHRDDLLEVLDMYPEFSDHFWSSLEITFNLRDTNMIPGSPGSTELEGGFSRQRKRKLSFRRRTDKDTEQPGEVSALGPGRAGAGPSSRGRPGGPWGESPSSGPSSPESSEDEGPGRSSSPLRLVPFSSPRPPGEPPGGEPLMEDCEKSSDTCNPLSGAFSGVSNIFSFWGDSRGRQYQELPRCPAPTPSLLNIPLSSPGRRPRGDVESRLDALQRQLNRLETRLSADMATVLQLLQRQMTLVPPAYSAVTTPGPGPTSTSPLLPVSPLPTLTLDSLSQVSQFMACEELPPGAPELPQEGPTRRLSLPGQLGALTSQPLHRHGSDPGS

[10] = molecular target: VEGFR1 (FLT1) (Homo sapiens (Human), UniProt P17948); experiment: kinase inhibition, Mobility-Shift Assay; format: biochemical; details: 278 μM ATP
Sequence of VEGFR1 (FLT1) (P17948 27-1338): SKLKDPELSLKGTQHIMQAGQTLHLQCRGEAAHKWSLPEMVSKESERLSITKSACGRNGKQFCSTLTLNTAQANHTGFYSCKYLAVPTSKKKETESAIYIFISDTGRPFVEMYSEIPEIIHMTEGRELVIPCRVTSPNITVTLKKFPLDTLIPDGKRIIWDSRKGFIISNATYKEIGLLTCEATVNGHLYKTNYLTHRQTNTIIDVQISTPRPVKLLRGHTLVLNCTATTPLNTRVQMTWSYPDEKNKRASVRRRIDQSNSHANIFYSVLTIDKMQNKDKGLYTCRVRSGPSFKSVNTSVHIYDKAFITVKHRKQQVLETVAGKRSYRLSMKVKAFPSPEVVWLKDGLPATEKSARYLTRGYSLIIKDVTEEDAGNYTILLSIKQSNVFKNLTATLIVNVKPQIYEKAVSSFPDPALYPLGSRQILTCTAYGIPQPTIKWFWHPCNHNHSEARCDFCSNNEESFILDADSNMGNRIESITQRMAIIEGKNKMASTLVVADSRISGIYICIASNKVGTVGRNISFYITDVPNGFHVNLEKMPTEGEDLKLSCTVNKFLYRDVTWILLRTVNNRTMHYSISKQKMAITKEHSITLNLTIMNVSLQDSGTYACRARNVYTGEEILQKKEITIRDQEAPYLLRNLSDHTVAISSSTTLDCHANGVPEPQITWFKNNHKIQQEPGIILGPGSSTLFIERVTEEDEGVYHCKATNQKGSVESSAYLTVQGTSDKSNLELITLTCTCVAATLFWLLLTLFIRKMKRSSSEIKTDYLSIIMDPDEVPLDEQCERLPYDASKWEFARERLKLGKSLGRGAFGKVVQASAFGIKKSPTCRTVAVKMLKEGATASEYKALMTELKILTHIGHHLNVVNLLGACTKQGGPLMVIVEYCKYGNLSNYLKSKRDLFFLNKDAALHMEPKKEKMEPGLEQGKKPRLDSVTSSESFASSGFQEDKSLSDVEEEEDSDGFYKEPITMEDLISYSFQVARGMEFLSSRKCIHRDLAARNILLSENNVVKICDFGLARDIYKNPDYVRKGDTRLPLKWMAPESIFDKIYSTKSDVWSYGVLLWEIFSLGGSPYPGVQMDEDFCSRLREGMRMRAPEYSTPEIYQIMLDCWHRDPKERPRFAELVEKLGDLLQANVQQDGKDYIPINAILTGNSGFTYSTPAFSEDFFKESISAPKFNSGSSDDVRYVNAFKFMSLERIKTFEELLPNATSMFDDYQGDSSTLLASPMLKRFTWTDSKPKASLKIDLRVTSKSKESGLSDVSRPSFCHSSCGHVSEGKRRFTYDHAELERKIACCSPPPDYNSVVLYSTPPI

[11] = molecular target: VEGFR2 (KDR) (Homo sapiens (Human), UniProt P35968); experiment: kinase inhibition, Mobility-Shift Assay; format: biochemical; details: VEGFR2, 92 μM ATP
[12] = molecular target: VEGFR3 (FLT4) (Homo sapiens (Human), UniProt P35916); experiment: kinase inhibition, Mobility-Shift Assay; format: biochemical; details: 84 μM ATP
Sequence of VEGFR3 (FLT4) (P35916 25-1363): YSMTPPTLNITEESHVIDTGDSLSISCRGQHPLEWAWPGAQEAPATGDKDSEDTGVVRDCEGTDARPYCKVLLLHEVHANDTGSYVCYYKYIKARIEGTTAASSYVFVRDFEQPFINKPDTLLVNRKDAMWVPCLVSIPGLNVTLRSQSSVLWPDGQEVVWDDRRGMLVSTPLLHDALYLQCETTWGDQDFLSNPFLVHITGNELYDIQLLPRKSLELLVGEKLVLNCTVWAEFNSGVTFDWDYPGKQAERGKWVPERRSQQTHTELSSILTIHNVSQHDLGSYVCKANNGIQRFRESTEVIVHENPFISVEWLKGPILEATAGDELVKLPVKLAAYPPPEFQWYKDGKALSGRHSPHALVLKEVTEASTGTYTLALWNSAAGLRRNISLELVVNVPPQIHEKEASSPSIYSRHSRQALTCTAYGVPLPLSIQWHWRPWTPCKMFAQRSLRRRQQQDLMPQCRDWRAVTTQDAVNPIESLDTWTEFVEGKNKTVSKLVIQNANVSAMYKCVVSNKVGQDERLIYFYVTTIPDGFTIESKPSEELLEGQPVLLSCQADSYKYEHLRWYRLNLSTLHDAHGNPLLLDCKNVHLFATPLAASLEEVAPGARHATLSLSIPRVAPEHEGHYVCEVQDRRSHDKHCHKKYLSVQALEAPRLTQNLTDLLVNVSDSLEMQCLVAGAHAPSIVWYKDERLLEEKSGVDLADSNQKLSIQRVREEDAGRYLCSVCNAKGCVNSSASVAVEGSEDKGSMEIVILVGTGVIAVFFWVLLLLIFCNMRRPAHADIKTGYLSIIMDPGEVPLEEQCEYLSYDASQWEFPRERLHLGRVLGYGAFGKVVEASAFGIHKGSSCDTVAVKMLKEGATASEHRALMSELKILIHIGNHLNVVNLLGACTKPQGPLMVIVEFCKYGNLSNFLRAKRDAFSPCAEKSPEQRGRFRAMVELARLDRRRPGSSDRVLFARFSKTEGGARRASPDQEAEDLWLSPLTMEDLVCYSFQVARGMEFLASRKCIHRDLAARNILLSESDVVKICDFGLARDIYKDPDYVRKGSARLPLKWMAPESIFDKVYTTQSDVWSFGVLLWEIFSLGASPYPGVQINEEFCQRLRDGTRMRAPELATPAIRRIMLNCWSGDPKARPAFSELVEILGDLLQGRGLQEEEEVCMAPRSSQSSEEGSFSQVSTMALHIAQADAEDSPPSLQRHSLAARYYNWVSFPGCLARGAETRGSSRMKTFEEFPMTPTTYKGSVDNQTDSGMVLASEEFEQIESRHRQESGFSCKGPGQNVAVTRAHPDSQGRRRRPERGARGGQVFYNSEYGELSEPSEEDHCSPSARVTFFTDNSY

[13] = molecular target: FGFR2 (Homo sapiens (Human), UniProt P21802); experiment: kinase inhibition, Mobility-Shift Assay; format: biochemical; details: 1.9 μM ATP
Sequence of FGFR2 (P21802 22-821): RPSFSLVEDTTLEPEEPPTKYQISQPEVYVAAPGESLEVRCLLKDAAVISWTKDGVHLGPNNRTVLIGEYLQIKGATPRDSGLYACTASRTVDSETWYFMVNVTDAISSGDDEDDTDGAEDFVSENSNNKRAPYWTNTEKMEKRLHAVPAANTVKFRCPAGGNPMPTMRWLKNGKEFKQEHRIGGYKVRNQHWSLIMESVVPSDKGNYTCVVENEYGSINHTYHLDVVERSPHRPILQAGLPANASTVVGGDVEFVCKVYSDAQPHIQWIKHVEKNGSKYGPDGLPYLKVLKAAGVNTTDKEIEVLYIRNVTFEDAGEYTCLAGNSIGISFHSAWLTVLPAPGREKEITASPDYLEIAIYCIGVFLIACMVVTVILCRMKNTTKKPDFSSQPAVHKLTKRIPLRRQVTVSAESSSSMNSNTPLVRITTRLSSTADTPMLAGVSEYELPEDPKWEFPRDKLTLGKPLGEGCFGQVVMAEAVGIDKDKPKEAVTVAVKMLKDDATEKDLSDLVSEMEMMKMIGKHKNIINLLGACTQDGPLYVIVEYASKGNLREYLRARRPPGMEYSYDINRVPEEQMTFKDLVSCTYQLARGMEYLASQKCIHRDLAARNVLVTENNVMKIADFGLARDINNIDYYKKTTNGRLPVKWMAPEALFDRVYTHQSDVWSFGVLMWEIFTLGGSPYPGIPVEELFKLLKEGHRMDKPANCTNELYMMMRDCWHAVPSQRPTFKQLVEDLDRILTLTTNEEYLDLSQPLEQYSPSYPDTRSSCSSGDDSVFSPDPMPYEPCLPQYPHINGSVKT

[14] = molecular target: RET (Homo sapiens (Human), UniProt P07949); experiment: kinase inhibition, Mobility-Shift Assay; format: biochemical; details: 23 μM ATP
[15] = MTD toxicity test in rats; format: in vivo; details: rat, in vivo

Row | IC50 [1] [µM] | IC50 [2] [µM] | IC50 [3] [µM] | SMILES | further results
1 | > 10 | > 5 | > 5 | COc1cc2nccc(Oc3c(F)cc(NC(=O)NC4CC4)c(Cl)c3F)c2cc1C(=O)NC(C)C [IIIb-04] | 
2 | > 10 | > 5 | > 5 | COc1cc2nccc(Oc3c(F)cc(NC(=O)NC4CC4)c(Cl)c3F)c2cc1C(=O)NC(C)C#N (stereo not shown) [IIIb-46] | 
3 | > 10 | > 5 | > 5 | COc1cc2nccc(Oc3c(F)cc(NC(=O)NC4CC4)c(F)c3F)c2cc1C(=O)NCC(F)F [IIIb-07] | 
4 | > 10 | 2.5 to 5 | 2.5 to 5 | COc1cc2nccc(Oc3c(F)cc(NC(=O)NC4CC4)c(Cl)c3F)c2cc1C(=O)NCCF [IIIb-06] | IC50 [4]: 2.5 to 5 µM; IC50 [5]: > 10 µM; IC50 [6]: < 5 µM; IC50 [7]: 5 to 10 µM; IC50 [8]: > 10 µM; IC50 [9]: 18.7 µM
5 | > 10 | > 5 | > 5 | CNC(=O)c1cc2c(Oc3c(F)cc(NC(=O)NC4CC4)c(F)c3F)ccnc2cc1OC [IIIb-02] | 
6 | > 10 | > 5 | > 5 | COc1cc2nccc(Oc3c(F)cc(NC(=O)NC4CC4)c(Cl)c3F)c2cc1C(=O)N1CCC1 [IIIb-14] | 
7 | > 10 | > 5 | > 5 | COc1cc2nccc(Oc3c(F)cc(NC(=O)NC4CC4)c(Cl)c3F)c2cc1C(=O)NCCN [IIIb-51] | 
8 | > 10 | > 5 | > 5 | COc1cc2nccc(Oc3c(F)cc(NC(=O)NC4CC4)c(Cl)c3F)c2cc1C(=O)N[C@H](C)CO [IIIb-17] | 
9 | > 10 | > 5 | > 5 | CN(C)CCOc1cc2nccc(Oc3c(F)cc(NC(=O)NC4CC4)c(Cl)c3F)c2cc1C(N)=O [IIIb-59] | 
10 | > 10 | > 5 | > 5 | COc1cc2nccc(Oc3c(F)cc(NC(=O)NC4CC4)c(Cl)c3F)c2cc1C(=O)Nc1cncn1C [IIIb-54] | 
11 | > 10 | > 5 | > 5 | COc1cc2nccc(Oc3c(F)cc(NC(=O)NC4CC4)c(Cl)c3F)c2cc1C(=O)N(C)C [IIIb-03] | 
12 | > 10 | > 5 | > 5 | COc1cc2nccc(Oc3c(F)cc(NC(=O)NC4CC4)c(F)c3F)c2cc1C(=O)NCCO [IIIb-15] | 
13 | < 5 | < 2.5 | < 2.5 | COc1cc2nccc(Oc3c(F)cc(NC(=O)NC4CC4)c(Cl)c3F)c2cc1C(=O)N1CC[C@H](O)C1 [IIIb-26] | 
14 | > 10 | > 5 | > 5 | COc1cc2nccc(Oc3c(F)cc(NC(=O)NC4CC4)c(Cl)c3F)c2cc1C(=O)Nc1cnn(C)c1 [IIIb-53] | 
15 | > 10 | > 5 | > 5 | COc1cc2nccc(Oc3c(F)cc(NC(=O)NC4CC4)c(Cl)c3F)c2cc1C(=O)N1CC(O)C1 [IIIb-24] | 
16 | > 10 | 2.5 to 5 | 2.5 to 5 | COc1cc2nccc(Oc3c(F)cc(NC(=O)NC4CC4)c(Cl)c3F)c2cc1C(=O)NC[C@H](O)CO [IIIb-22] | 
17 | > 10 | > 5 | > 5 | COc1cc2nccc(Oc3c(F)cc(NC(=O)NC4CC4)c(Cl)c3F)c2cc1C(=O)NC1CCN(C)CC1 [IIIb-28] | 
18 | > 10 | > 5 | > 5 | COc1cc2nccc(Oc3c(F)cc(NC(=O)NC4CC4)c(Cl)c3F)c2cc1C(=O)NCC1(C#N)CC1 [IIIb-49] | 
19 | > 10 | > 5 | > 5 | COCCNC(=O)c1cc2c(Oc3c(F)cc(NC(=O)NC4CC4)c(Cl)c3F)ccnc2cc1OC [IIIb-05] | 
20 | > 10 | > 5 | > 5 | COc1cc2nccc(Oc3c(F)cc(NC(=O)NC4CC4)c(Cl)c3F)c2cc1C(=O)NC1CC1 [IIIb-12] | 

Row | IC50 [1] [µM] | IC50 [2] [µM] | IC50 [3] [µM] | SMILES | further results
21 | > 10 | > 5 | > 5 | COc1cc2nccc(Oc3c(F)cc(NC(=O)NC4CC4)c(Cl)c3F)c2cc1C(=O)Nc1cn[nH]c1 [IIIb-52] | 
22 |  |  |  | CNC(=O)c1cc(Oc2ccc(NC(=O)Nc3ccc(Cl)c(C(F)(F)F)c3)cc2)ccn1 [Sorafenib, sorafenib, reference compound] | IC50 [9]: > 10 µM
23 | > 10 | > 5 | > 5 | COc1cc2nccc(Oc3c(F)cc(NC(=O)NC4CC4)c(Cl)c3F)c2cc1C(=O)NC(C)(C)CO [IIIb-19] | 
24 | > 10 | > 5 | > 5 | COc1cc2nccc(Oc3c(F)cc(NC(=O)NC4CC4)c(Cl)c3F)c2cc1C(=O)N1CC[C@@H](O)C1 [IIIb-25] | 
25 | > 10 | > 5 | > 5 | COc1cc2nccc(Oc3c(F)cc(NC(=O)NC4CC4)c(Cl)c3F)c2cc1C(=O)NC(CO)CO [IIIb-20] | 
26 | > 10 | > 5 | > 5 | COc1cc2nccc(Oc3c(F)cc(NC(=O)NC4CC4)c(Cl)c3OC)c2cc1C#N [IIIb-30] | 
27 | 5 to 10 | < 2.5 | < 2.5 | COc1cc2nccc(Oc3c(F)cc(NC(=O)NC4CC4)c(Cl)c3F)c2cc1C(=O)NC[C@@H](O)CO [IIIb-21] | IC50 [4]: 2.5 to 5 µM; IC50 [5]: > 10 µM; IC50 [6]: > 10 µM; IC50 [7]: 5 to 10 µM; IC50 [8]: > 10 µM; IC50 [10]: < 0.005 µM; IC50 [11]: < 0.005 µM; IC50 [12]: < 0.005 µM; IC50 [13]: 0.05 to 0.1 µM; IC50 [14]: 0.005 to 0.01 µM
28 | > 10 | > 5 | > 5 | COc1cc2nccc(Oc3c(F)cc(NC(=O)NC4CC4)c(Cl)c3F)c2cc1C(=O)NC1(CO)CC1 [IIIb-23] | 
29 | > 10 | > 5 | > 5 | COc1cc2nccc(Oc3c(F)cc(NC(=O)NC4CC4)c(Cl)c3F)c2cc1C(=O)N(C1CC1)C1CC1 [IIIb-13] | 
30 | > 10 | > 5 | > 5 | COc1cc2nccc(Oc3c(F)cc(NC(=O)NC4CC4)c(Cl)c3F)c2cc1C(=O)NC(C)(C)C#N [IIIb-47] | 
31 | > 10 | > 5 | > 5 | COc1cc2nccc(Oc3c(F)cc(NC(=O)NC4CC4)c(Cl)c3F)c2cc1C(=O)N1CCN(C)CC1 [IIIb-27] | 
32 | > 10 | > 5 | > 5 | COc1cc2nccc(Oc3c(F)cc(NC(=O)NC4CC4)c(Cl)c3F)c2cc1C(=O)N[C@@H](C)CO [IIIb-18] | 
33 | > 10 | > 5 | > 5 | COc1cc2nccc(Oc3c(F)cc(NC(=O)NC4CC4)c(Cl)c3F)c2cc1C#N [IIIb-29] | 
34 | > 10 | > 5 | > 5 | COc1cc2nccc(Oc3c(F)cc(NC(=O)NC4CC4)c(Cl)c3F)c2cc1C(=O)NC1(C(F)(F)F)CC1 [IIIb-41] | 
35 | > 10 | > 5 | > 5 | COc1cc2nccc(Oc3c(F)cc(NC(=O)NC4CC4)c(Cl)c3F)c2cc1C(=O)NC1(C#N)CC1 [IIIb-48] | 
36 | < 5 | < 2.5 | < 2.5 | COc1cc2nccc(Oc3c(F)cc(NC(=O)NC4CC4)c(F)c3F)c2cc1C(=O)NC1CC1 [IIIb-11] | 
37 | > 10 | > 5 | > 5 | COc1cc2nccc(Oc3c(F)cc(NC(=O)NC4CC4)c(Cl)c3F)c2cc1C(=O)NCCN(C)C [IIIb-10] | 
38 | > 10 | > 5 | > 5 | COc1cc2nccc(Oc3c(F)cc(NC(=O)NC4CC4)c(Cl)c3F)c2cc1C(=O)NC(CO)C(F)(F)F (stereo not shown) [IIIb-42] | 
39 | > 10 | > 5 | > 5 | COc1cc2nccc(Oc3ccc(NC(=O)NC4CC4)c(Cl)c3)c2cc1C(N)=O [Lenvatinib, lenvatinib, reference compound] | IC50 [4]: > 5 µM; IC50 [5]: 5 to 10 µM; IC50 [6]: > 10 µM; IC50 [7]: 5 to 10 µM; IC50 [8]: > 10 µM; IC50 [10]: 0.005 to 0.01 µM; IC50 [12]: < 0.005 µM; IC50 [13]: 0.05 to 0.1 µM

Row | SMILES | IC50 [1] [µM] | IC50 [2] [µM] | IC50 [3] [µM] | further results
40 | CNC(=O)c1cc(Oc2ccc(NC(=O)Nc3ccc(Cl)c(C(F)(F)F)c3)c(F)c2)ccn1 [Regorafenib, regorafenib, reference compound] | > 10 | > 5 | > 5 | IC50 [4]: > 5 µM; IC50 [5]: 5 to 10 µM; IC50 [6]: > 10 µM; IC50 [7]: > 10 µM; IC50 [8]: > 10 µM; IC50 [9]: 27 µM
41 | CNC(=O)c1cc2c(Oc3c(F)cc(NC(=O)NC4CC4)c(Cl)c3F)ccnc2cc1OC [IIIb-01] | > 10 | > 5 | > 5 | IC50 [9]: > 30 µM; MTD at 14 days ([15]; 150 mg/kg, in rats, read-out: MTD toxicity dose): > 150 mg/kg; MTD ([15]; toxicity study for MTD, species not stated): 300 mg/kg
